Results: patent US20150290029A1, “Delivery Systems for Agents to treat Ocular Discomfort” (priority 2014, published 2015)
Like-named read-outs stand apart in the source and are kept apart here. Each block holds one molecule with its values, some of them ahead of it.

What was measured:
TRPM8 receptor = target: T1, TRPM8 receptor (Homo sapiens, UniProt Q7Z2W7); assay: Receptor assay, fluorescence (Relative Fluorescence Units), ChanTest; type: cell-based; details: FIG. 4
T1 construct: ChanTest Corporation
T1 sequence (Q7Z2W7 whole entry): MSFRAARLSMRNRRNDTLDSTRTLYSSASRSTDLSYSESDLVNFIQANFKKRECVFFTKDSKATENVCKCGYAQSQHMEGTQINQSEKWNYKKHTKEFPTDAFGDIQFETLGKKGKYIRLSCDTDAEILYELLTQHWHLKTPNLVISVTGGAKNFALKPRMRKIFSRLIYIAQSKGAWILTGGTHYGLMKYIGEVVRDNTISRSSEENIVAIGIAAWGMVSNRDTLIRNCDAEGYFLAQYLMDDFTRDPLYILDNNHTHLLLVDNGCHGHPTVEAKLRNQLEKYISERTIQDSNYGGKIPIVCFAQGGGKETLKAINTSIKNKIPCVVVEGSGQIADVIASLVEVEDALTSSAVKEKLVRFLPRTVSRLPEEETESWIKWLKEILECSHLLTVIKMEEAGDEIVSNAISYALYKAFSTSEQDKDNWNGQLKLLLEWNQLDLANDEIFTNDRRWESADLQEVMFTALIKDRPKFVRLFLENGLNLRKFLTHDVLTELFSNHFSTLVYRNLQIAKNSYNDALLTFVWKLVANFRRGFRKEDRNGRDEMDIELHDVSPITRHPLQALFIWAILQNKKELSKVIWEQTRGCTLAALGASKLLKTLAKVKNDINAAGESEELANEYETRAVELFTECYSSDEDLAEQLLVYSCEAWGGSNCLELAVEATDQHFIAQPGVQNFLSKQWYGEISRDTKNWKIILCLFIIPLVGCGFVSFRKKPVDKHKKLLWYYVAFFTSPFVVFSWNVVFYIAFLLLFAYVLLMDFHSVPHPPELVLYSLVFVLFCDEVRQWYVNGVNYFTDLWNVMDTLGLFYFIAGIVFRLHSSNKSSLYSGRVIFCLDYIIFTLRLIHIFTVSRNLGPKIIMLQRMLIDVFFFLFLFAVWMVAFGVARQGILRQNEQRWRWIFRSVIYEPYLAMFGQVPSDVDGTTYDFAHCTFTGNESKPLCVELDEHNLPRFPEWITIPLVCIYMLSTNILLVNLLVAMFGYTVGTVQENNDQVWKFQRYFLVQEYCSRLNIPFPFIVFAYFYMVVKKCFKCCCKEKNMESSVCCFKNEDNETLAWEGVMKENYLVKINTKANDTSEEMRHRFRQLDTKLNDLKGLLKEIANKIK
Experimental: FIG. 4 is a graph of fluorescence (Relative Fluourescence Units; % Maximum) of test compounds, as a function of the logarithm of the concentration of the test compound (μM). The compounds tested were 2-4 (circle), 2-5 (square), 2-6 (inverted triangle), 2-7 (diamond), and 2-8 (star), representing the 1 [di-sec-butyl-phosphinoyl]-butane, pentane, hexane, heptane, and octane analogs, respectively. The receptor assays were conducted by ChanTest Corporation, Cleveland, Ohio 44128. […] The 95% confidence intervals of 2-5 to 2-8 overlap.
(§1) FIG. 5. illustrates the activity of 2-5 on cells transfected with the TRPA1 and TRPV1. TRPA1 and TRPV1 receptors mediate nociception: that is, stimulation of these receptors results in irritation and pain. Capsaicin and mustard oil are the positive control substances for TRPV1 and TRPA1, respectively.

ocular surface = assay: Periocular spray of 2-5 over the closed eye in normal subjects and dry eyes syndrome patients; type: in vivo, human
Experimental: Sensory discomfort of the eye is a conspicuous symptom in patients diagnosed with “dry eyes disease.” The study described below was conducted by Prof. K. C. Yoon of the Department of Ophthalmology, Chonnam National University Medical School, Gwangju, South Korea. Prof. Yoon is an acknowledged expert on the investigation of dry eyes disease and has published extensively on this subject [e.g. Yoon, K.-C. et al. Application of umbilical cord serum eyedrops for the treatment of dry eye syndrome. Cornea 25, 268-72 (2006). Yoon, K.-C. et al. Comparison of autologous serum and umbilical cord serum eye drops for dry eye syndrome. Am. J. Ophthalmol. 144, 86-92 (2007).] The methods used in these two publications were also used in the experiments described below. This report was presented as an Oral Communication entitled “Effect of a periocular spray of a TRPM8 agonist on the ocular surface” at the 110th Meeting of the Korean Ophthalmological Society, Bexco, Busan, Korea on Apr. 13, 2014.
2-5 was prepared as a 2 mg/mL solution in distilled water and administered as a spray [sprayed volume of ˜0.1 mL] over the closed right eye of test subjects. There were 20 subjects in the normal group [9 males/11 females] and 17 subjects in the group with defined “dry eyes syndrome” [7 males/10 females]. Exclusion criteria for patient selection was age of <18 years, systemic medication that may affect tear secretion, previous punctal plug insertion, history of contact lenses use, previous ocular surgery or trauma, pregnancy or lactation, and ocular or systemic disease. The average age of the subjects was 29 years, and both groups had normal values for visual acuity, intraocular pressure, and corneal sensitivity [Cochet-Bonnet esthesiometry, measured with a microfilament]. […] The score for keratoepitheliopathy [National Eye Institute system] was 0.1±0.3 and 2.5±1.7, in the normal vs the “dry eyes syndrome” group.
Subjective symptoms were graded on a numerical score. A visual analog scale score [0 to 10 units] was used for grading the degree of soothing and cooling sensation on the ocular surface. For symptoms of the dry eyes syndrome, a scale of zero to four was used, with zero representing no symptoms and four representing very severe symptoms that caused discomfort and interfered with normal activities. These methods have been described in detail elsewhere and are incorporated by reference [Yoon, K.-C. et al. Application of umbilical cord serum eyedrops for the treatment of dry eye syndrome. Cornea 25, 268-72 (2006). Yoon, K.-C. et al. Comparison of autologous serum and umbilical cord serum eye drops for dry eye syndrome. Am. J. Ophthalmol. 144, 86-92 (2007)].
The onset was less than 3 min and reached maximal effect in the first 10 min. The mean duration of cooling was 42±8 min and all cooling sensations disappeared by 1 hr. For patients previously diagnosed with “dry eyes” disease there was a reduction of symptom score from 1.8 to 0.5, a highly significant event [P<0.001]. […] However, the magnitude of the effect was not considered clinically significant and may have been due to increased sensitivity of the dry eyes patients to foreign solutions applied to the ocular surface. The keratoepitheliopathy score was not affected by treatment.
The mechanical sensitivity of the cornea, measured with the Cochet-Bonnet esthesiometer, was not affected in all patients, in the 1.5 hr test period with […], spaced 30 min apart. This is an important observation from the viewpoint of safety in use, because numbness of the corneal surface will increase risks of eye injury from foreign materials.

TRPA1 = target: T2, TRPA1 (Homo sapiens, UniProt O75762); assay: Activity on TRPA1 transfected cells; type: cell-based; details: FIG. 5; mustard oil positive control
T2 construct: expressed in transfected cells
T2 sequence (O75762 whole entry, species assumed): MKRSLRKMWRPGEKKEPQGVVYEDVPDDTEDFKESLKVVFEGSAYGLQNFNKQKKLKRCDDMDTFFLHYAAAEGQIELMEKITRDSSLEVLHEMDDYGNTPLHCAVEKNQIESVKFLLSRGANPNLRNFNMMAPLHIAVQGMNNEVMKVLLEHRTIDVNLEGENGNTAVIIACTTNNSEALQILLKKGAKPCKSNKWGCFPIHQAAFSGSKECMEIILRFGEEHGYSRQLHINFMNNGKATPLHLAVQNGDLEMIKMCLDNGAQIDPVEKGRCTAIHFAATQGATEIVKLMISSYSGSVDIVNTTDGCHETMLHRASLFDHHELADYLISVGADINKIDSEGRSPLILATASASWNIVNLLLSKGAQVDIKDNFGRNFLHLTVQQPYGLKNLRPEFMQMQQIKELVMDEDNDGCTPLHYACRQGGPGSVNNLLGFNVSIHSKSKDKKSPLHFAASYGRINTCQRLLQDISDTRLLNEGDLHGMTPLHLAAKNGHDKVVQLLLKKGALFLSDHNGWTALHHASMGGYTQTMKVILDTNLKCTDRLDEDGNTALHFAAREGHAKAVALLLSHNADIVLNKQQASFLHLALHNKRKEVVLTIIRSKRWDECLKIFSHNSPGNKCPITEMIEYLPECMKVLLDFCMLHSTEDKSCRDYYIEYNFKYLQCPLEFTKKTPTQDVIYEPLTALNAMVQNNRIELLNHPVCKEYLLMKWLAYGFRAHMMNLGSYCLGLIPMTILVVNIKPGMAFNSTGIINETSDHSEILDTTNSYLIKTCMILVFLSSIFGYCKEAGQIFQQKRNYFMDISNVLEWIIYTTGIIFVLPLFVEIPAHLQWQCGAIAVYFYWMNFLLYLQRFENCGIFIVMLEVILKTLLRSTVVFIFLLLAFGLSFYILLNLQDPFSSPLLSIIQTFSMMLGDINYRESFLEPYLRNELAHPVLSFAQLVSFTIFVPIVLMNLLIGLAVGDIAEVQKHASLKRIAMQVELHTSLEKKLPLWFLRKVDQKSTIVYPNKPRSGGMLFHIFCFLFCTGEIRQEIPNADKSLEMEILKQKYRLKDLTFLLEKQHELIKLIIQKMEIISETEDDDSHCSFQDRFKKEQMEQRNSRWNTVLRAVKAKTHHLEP
From the text: as §1

skin of the eyelids = assay: Irritation when applied in vivo to the skin of the eyelids; details: compared among analogs 2-4 to 2-8
TRPV1 = target: T3, TRPV1 (Homo sapiens, UniProt Q8NER1); assay: Activity on TRPV1 transfected cells; type: cell-based; details: FIG. 5; capsaicin positive control
T3 construct: expressed in transfected cells
T3 sequence (Q8NER1 whole entry, species assumed): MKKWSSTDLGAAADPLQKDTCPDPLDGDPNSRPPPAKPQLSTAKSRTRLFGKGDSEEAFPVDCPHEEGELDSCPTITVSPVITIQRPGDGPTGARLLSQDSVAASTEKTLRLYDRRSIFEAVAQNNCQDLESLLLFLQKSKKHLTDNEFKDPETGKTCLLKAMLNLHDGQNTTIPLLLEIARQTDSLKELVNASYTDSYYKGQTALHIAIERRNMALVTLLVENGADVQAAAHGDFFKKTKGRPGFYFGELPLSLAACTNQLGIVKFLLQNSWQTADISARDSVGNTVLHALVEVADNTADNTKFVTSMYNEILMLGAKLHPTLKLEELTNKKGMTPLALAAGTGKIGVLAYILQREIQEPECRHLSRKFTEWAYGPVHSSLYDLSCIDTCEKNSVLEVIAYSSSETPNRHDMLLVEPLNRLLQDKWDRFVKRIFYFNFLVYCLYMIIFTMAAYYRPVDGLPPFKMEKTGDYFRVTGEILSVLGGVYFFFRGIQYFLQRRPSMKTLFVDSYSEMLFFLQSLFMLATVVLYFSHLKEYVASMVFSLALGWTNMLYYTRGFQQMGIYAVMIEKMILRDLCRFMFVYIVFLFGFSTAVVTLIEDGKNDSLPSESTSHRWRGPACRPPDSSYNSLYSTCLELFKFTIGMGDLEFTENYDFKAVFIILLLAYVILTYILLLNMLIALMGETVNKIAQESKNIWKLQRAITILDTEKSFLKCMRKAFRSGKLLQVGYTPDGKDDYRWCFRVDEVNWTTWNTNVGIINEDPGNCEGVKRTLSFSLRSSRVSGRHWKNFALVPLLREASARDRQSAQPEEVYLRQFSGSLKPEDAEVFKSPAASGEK
From the text: as §1

human ocular surface = details: for Irritancy, delivery unit: wiped across the orbital skin
Experimental: Subjects received different ethanol-water concentrations either in eye drops or via the delivery unit. Subjects were asked to report irritation, stinging, burning sensations, or pain in the 2 to 5 min after application. The intensity of the subjective eye sensation was rated as 0, 1, 2 or 3 with: 0 as no effect; 1 as slight; 2 as a clear-cut effect; and 3 as severe.

[1] = dry eyes group, first 30 min, not considered clinically significant
[2] = ethanol 5% wt/vol in water, scale 0-3
[3] = ethanol 10% wt/vol in water, scale 0-3

SMILES: CCCCCCCCP(=O)(C(C)CC)C(C)CC (centres unmarked) [2-8, 1 [di-sec-butyl-phosphinoyl]-octane]
Potency relative to 1-menthol in the same assay (TRPM8 receptor): 3.0 ×

SMILES: CCO [Ethanol]
Sensation upon delivery (human ocular surface; 5% ethanol solution as an eye drop): clearly aversive as an eye drop, producing stinging and pain upon delivery
Sensation upon delivery (human ocular surface; 20% applied to the eye with a wipe): mild burning sensations in two subjects
Irritancy, eye drops (human ocular surface; ethanol 2.5% wt/vol in water, scale 0-3 (0 no effect, 3 strongly irritating), N = 8 experiments): 0
Irritancy, delivery unit (human ocular surface; ethanol 2.5% wt/vol in water, scale 0-3): 0
Irritancy, eye drops (human ocular surface; [2]): +2
Irritancy, delivery unit (human ocular surface; [2]): 0
Irritancy, eye drops (human ocular surface; [3]): +3
Irritancy, delivery unit (human ocular surface; [3]): 0
Irritancy, delivery unit (human ocular surface; ethanol 20% wt/vol in water, scale 0-3): +1
Change in decreased sensitivity to irritation, swab method versus eye drops (human ocular surface; ethanol/water): ~4 fold

The next lines start with results.

Keratoepitheliopathy score (ocular surface; after treatment): not affected
Mechanical sensitivity of the cornea (Cochet-Bonnet esthesiometer) (ocular surface; all patients, 1.5 hr test period, 5 points of measurement): not affected
Potency relative to 1-menthol in the same assay (TRPM8 receptor): 2.2 ×
Stimulation of TRPA1 (TRPA1): does not stimulate
Stimulation of TRPV1 (TRPV1): does not stimulate
SMILES: CCCCCP(=O)(C(C)CC)C(C)CC (centres unmarked) [2-5, 1-di(sec-butyl) phosphinoyl-pentane]
Soothing and cooling sensations on the ocular surface after blinking (ocular surface; 2 mg/mL in distilled water, spray ~0.1 mL over closed eye): all subjects felt soothing and cooling sensations
Mean duration of cooling (ocular surface; 2 mg/mL spray over closed eye): 42 ± 8 min
Onset of cooling (ocular surface; 2 mg/mL spray over closed eye): less than 3 min
Time by which all cooling sensations disappeared (ocular surface; 2 mg/mL spray over closed eye): ≤ 1 h
Time of maximal effect (ocular surface; 2 mg/mL spray over closed eye): ≤ 10 min
Tear Film BUT (ocular surface; [1]): slightly elevated
Tear secretion rates (ocular surface; [1]): slightly elevated
Symptom score after treatment (ocular surface; dry eyes patients, scale zero to four, reduced from 1.8, P<0.001): 0.5
Tear Film BUT (ocular surface; normal group): not significantly affected
Tear secretion rates (ocular surface; normal group): not significantly affected
Irritation when applied to the skin of the eyelids (skin of the eyelids): minimal irritation

Potency relative to 1-menthol in the same assay (TRPM8 receptor): 0.3 ×
SMILES: CCCCP(=O)(C(C)CC)C(C)CC (centres unmarked) [2-4, 1 [di-sec-butyl-phosphinoyl]-butane]

Potency relative to 1-menthol in the same assay (TRPM8 receptor): 4-9 ×
SMILES: CCCCCCP(=O)(C(C)CC)C(C)CC (centres unmarked) [2-6, 1 [di-sec-butyl-phosphinoyl]-hexane]
